Tests used:
Format in all cases: cell-based, mouse
adiponectin = assay: Adiponectin expression in 3T3-L1 adipocytes; conditions: 48 h
Experimental: (§1) 3T3-L1 pre-adipocytes were incubated at a density of 8000 cells/cm^2 (10 cm^2 dish) and grown in Dulbecco's modified Eagle's medium (DMEM) containing 10% FBS and antibiotics (adipocyte medium) at 37° C. in 5% CO2 in air. Confluent pre-adipocytes were induced to differentiate with a standard differentiation medium consisting of DMEM-F10 (1:1, vol/vol) medium supplemented with 1% fetal bovine serum (FBS), 1 μM dexamethasone, isobutylmethylxanthine (IBMX) (0.5 mM) and antibiotics (1% Penicillin-Streptomycin). Pre-adipocytes were maintained in this differentiation medium for 3 days and subsequently cultured in adipocyte medium. Cultures were re-fed every 2-3 days to allow 90% cells to reach fully differentiation before conducting chemical treatment. […] Cell viability was measured via trypan blue exclusion. Adipocyte and muscle 18s, TNFα, IL-6, IL-8, IL-15 and adiponectin were quantitatively measured using a smart cycler real-time PCR system (Cepheid, Sunnyvale, Calif.) with a TaqMan 1000 Core Reagent Kit (Applied Biosystems, Branchburg, N.J.). […] Reactions of quantitative RT-PCR for standards and unknown samples were also performed according to the instructions of Smart Cycler System (Cepheid, Sunnyvale, Calif.) and TaqMan Real Time PCR Core Kit (Applied Biosystems, Branchburg, N.J.). The mRNA quantitation for each sample was further normalized using the corresponding 18s quantitation.

3T3-L1 adipocytes [1] = assay: Intracellular ROS generation in cultured adipocytes (H2-DCFDA); conditions: α-tocopherol 1 μmol/L added, all groups
Experimental: 3T3-L1 preadipocytes were incubated at a density of 8000 cells/cm^2 (10 cm^2 dish) and grown in Dulbecco's modified Eagle's medium (DMEM) containing 10% FBS and antibiotics (adipocyte medium) at 37° C. in 5% CO2 in air. Confluent preadipocytes were induced to differentiate with a standard differentiation medium consisting of DMEM-F10 (1:1, vol/vol) medium supplemented with 1% FBS, 1 μM dexamethasone, IBMX (0.5 mM) and antibiotics (1% Penicillin-Streptomycin). Preadipocytes were maintained in this differentiation medium for 3 days and subsequently cultured in adipocyte medium. Cultures were re-fed every 2-3 days to allow 90% of cells to reach full differentiation before conducting chemical treatment. Chemicals were freshly diluted in adipocyte medium before treatment. Cells were washed with fresh adipocyte medium, re-fed with medium containing the different treatments, and incubated at 37° C. in 5% CO2 in air before analysis. Cell viability was measured via trypan blue exclusion. […] Cells were loaded with H2-DCFDA (2 μmol/L) 30 minute before the end of the incubation period (48 h). After washing twice with PBS, cells were scraped and disrupted by sonication on ice (20 s). Fluorescence (emission 543 nm or 527 nm) and DNA content were then measured as described previously. The intensity of fluorescence was expressed as arbitrary units per ng DNA.

IL-15 = IL-15 expression in 3T3-L1 adipocytes; conditions: 1 μmol/L α±tocopherol added to 100 nmol/L H2O2, 48 h; P=0.043
Experimental: as §1

3T3-L1 adipocytes [2] = assay: Cell proliferation / DNA synthesis in cultured adipocytes (CyQUANT)
Experimental: 3T3-L1 preadipocytes were incubated at a density of 8000 cells/cm^2 (10 cm^2 dish) and grown in Dulbecco's modified Eagle's medium (DMEM) containing 10% FBS and antibiotics (adipocyte medium) at 37° C. in 5% CO2 in air. Confluent preadipocytes were induced to differentiate with a standard differentiation medium consisting of DMEM-F10 (1:1, vol/vol) medium supplemented with 1% FBS, 1 μM dexamethasone, IBMX (0.5 mM) and antibiotics (1% Penicillin-Streptomycin). Preadipocytes were maintained in this differentiation medium for 3 days and subsequently cultured in adipocyte medium. Cultures were re-fed every 2-3 days to allow 90% of cells to reach full differentiation before conducting chemical treatment. Chemicals were freshly diluted in adipocyte medium before treatment. Cells were washed with fresh adipocyte medium, re-fed with medium containing the different treatments, and incubated at 37° C. in 5% CO2 in air before analysis. Cell viability was measured via trypan blue exclusion. Cells were plated in DMEM with different treatment in duplicate in 96-well plates. After 48 h, a CyQUANT Cell Proliferation Kit (Molecular Probes, Eugene, Oreg.) was used following the manufacturer's protocol. a microplate fluorometer (Packard Instrument Company, Inc., Downers Grove, Ill.) was used to measure CyQUANT fluorescence. Cell viability was determined by Trypan blue exclusion examination.

3T3-L1 adipocytes [3] = assay: Intracellular Ca2+ in cultured adipocytes (fura-2)
Experimental: 3T3-L1 preadipocytes were incubated at a density of 8000 cells/cm^2 (10 cm^2 dish) and grown in Dulbecco's modified Eagle's medium (DMEM) containing 10% FBS and antibiotics (adipocyte medium) at 37° C. in 5% CO2 in air. Confluent preadipocytes were induced to differentiate with a standard differentiation medium consisting of DMEM-F10 (1:1, vol/vol) medium supplemented with 1% FBS, 1 μM dexamethasone, IBMX (0.5 mM) and antibiotics (1% Penicillin-Streptomycin). Preadipocytes were maintained in this differentiation medium for 3 days and subsequently cultured in adipocyte medium. Cultures were re-fed every 2-3 days to allow 90% of cells to reach full differentiation before conducting chemical treatment. Chemicals were freshly diluted in adipocyte medium before treatment. Cells were washed with fresh adipocyte medium, re-fed with medium containing the different treatments, and incubated at 37° C. in 5% CO2 in air before analysis. Cell viability was measured via trypan blue exclusion. [Ca^2+]i in adipocytes was measured using a fura-2 dual-wavelength fluorescence imaging system. Cells were plated in 35-mm dishes […]). […] Cells were loaded with fura-2 acetoxymethyl ester (fura-2 AM) (10 μmol/L) in the same buffer for 2 h at 37° C. in a dark incubator with 5% CO2. To remove extracellular dye, cells were rinsed with HBSS three times and then post-incubated at room temperature for an additional 1 h for complete hydrolysis of cytoplasmic fura-2 AM. The dishes with dye-loaded cells were mounted on the stage of Nikon TMS-F fluorescence inverted microscope with a Cohu model 4915 charge-coupled device (CCD) camera. Fluorescent images were captured alternatively at excitation wavelengths of 340 and 380 nm with an emission wavelength of 520 nm. After establishment of a stable baseline, the responses to 1α, 25-(OH)2-D3 was determined. [Ca^2+]i was calculated using a ratio equation as described previously. Each analysis evaluated responses of 5 representative whole cells. Images were analyzed with […]2 version 4.62 imaging software (Intracellular Imaging, Cincinnati, Ohio). […]

Cc1c(C)c2c(c(C)c1O)CC[C@@](C)(CCC[C@H](C)CCC[C@H](C)CCCC(C)C)O2 [α-tocopherol]
effect on adiponectin production (adiponectin): increased
effect on ROS production (3T3-L1 adipocytes [1]): inhibited
increase in IL-15 as compared to H2O2-treated cells (IL-15): 2.2 fold
effect on DNA synthesis (3T3-L1 adipocytes [2]; α-tocopherol 1 μmol/L added, all groups): inhibited
effect on H2O2 induced DNA synthesis (3T3-L1 adipocytes [2]; α-tocopherol 1 μmol/L or nifedipine 10 μmol/L plus H2O2, 48 hours): completely blocked
effect on H2O2 induced increase in [Ca2+]i (3T3-L1 adipocytes [3]; α-tocopherol 1 μmol/L plus H2O2, 4 hours): reversed
effect on glucose induced increase in [Ca2+]i (3T3-L1 adipocytes [3]; α-tocopherol 1 μmol/L plus glucose 30 mmol/L, 4 hours): partially blocked

From patent US20110038948A1, “Methods of Reducing the Production of Reactive Oxygen Species and Methods of Screening or Identifying Compounds and Compositions that Reduce the Production of Reactive Oxygen Species” (UNIVERSITY OF TENNESSEE RESEARCH FOUNDATION, priority 2005, published 2011)
